This note sets out measurements from patent US10059975B2, “Methods for the isolation and identification of microorganisms” (bioMerieux, Inc., priority 2008, dated 2018).

What all share (assay type): cell-based
For assay [1], the system named is fastidious microorganisms. In words: Screening model, summary over the panel. The note with it: summary of the colony counts of Table 6. Here is the method: (§1) A screening model was developed to enable testing the sensitivity of a larger number of microbial isolates to several detergents. Briefly, suspensions of test fastidious microorganisms were spiked into human blood-containing BacT/ALERT® SA culture media at 10^3-10^5 CFU/mL. Samples were treated with test Lysis Buffers for 1-5 minutes at 37 C, then if required, diluted 1:100 into TSB and plated for viable counts.

Another assay concerns S. pneumoniae WM48. In words: Viable counts following lysis buffer treatment. As to the method:
as §1

A further assay relates to A. actinomycetecomitans. Briefly: Viable counts following lysis buffer treatment. Here is the method:
as §1

Another assay relates to H. parainfluenzae. In words: Viable counts following lysis buffer treatment. Here is the method:
as §1

The next assay relates to C. hominis. In words: Viable counts following lysis buffer treatment. As to the method:
as §1

The next assay relates to S. pneumoniae WM43. Briefly: Viable counts following lysis buffer treatment. Here is the method:
as §1

The test system of the next assay is H. influenzae. Briefly: Viable counts following lysis buffer treatment. As to the method:
as §1

The subject of the next assay is N. meningitidis. Briefly: Viable counts following lysis buffer treatment. As to the method: as §1
Assay [2] has as its system S. pneumoniae, S. pyogenes, S. agalactiae, S. mitis, P. mirabilis, K. pneumoniae and E. coli. Briefly: Follow up experiment: viability after 5-minute contact time. The note with it: data not shown.
The subject of assay [3] is Streptococcus pneumoniae, strain WM-43. Briefly: Effect of detergent type on Gram reactivity, viability and intrinsic fluorophores. More on the design: key to Viability of Pellet: NG (no growth); 4+(maximal growth). The note with it: for Viability of Pellet: 1:100 dilution of resuspended pellet plated on Sheep Blood Agar, scale NG to 4+; for Gram Stain of Pellet: Bacteria (cocci): detergent in 0.3M CAPS, pH 11.7, 1 min at 37° C.; for effect on Gram reaction/reactivity of the S. pneumoniae isolate (in words): Table 4. As to the method: Lysis buffers were prepared containing detergents of differing structure and lytic activity in a base buffer formulation of 0.3M CAPS, pH 11.7. These lysis buffers were functionally assessed using positive blood culture broth containing a clinical microorganism strain known to be sensitive to detergents and alkaline pH conditions, Streptococcus pneumoniae, strain WM-43. Parameters evaluated were microbial intrinsic fluorescence levels (Excitation-Emission Matrix spectra), separation efficiency, appearance of isolated microbial pellet, and Gram stain characteristics and viability of microorganisms recovered from the pellet beneath the density cushion.
The procedure was performed as follows:
Mix 2 parts of positive broth with 1 part of test lysis buffer, incubate in a 37° C. water bath for 1 minute to lyse blood cells, then layer 0.5 mL of lysate over 0.2 mL of density cushion (14% w/v Iohexyl+1.93% w/v NaCl+10 mM Hepes, pH 7.4) dispensed into a 2-piece optical separation tube which was then hermetically sealed with a screw-cap. After centrifuging the tube in an Eppendorf 5417R microcentrifuge fitted with a A-8-11 swing out rotor for 2 minutes at 10,000 rpm, the tube was placed into a custom-built adapter which coupled the base of the tube directly to a 400 micron fiber optic probe connected to a spectrofluorimeter (Fluorolog® 3 from Horiba Jobin-Yvon, New Jersey), and a complete EEM scan was taken (Ex 260-850 nm; Em 260-1100 nm; every 5 nm). Following the scan, the supernatant was removed and the microbial pellet resuspended in 0.5 mL of Tryptic Soy Broth (TSB). Smears of the suspensions were prepared for Gram staining and twenty microliters of a 1:100 dilution were plated onto Sheep Blood Agar plates for viability estimation on a scale of NG (no growth) to 4+(maximal growth).

Assay [4] relates to S. pneumoniae strain, WM43. In words: Further testing of lysis buffers in combination with density cushions. The note with it: irrespective of the makeup of the density cushion.

Consider Brij ® 97 [Detergent 10], for which the “toxicity over the panel (in words)” value in assay [1] is “minimal toxicity”. Moreover, the “Viable Counts Following Lysis Buffer Treatment” value was found to be 14 in the assay on S. pneumoniae WM48 (1 min at 37 C); 11 in the assay on S. pneumoniae WM48 (5 min at 37 C); 0 in the assay on A. actinomycetecomitans (1 min at 37 C); 0 in the assay with A. actinomycetecomitans (5 min at 37 C); 124 in the assay on H. parainfluenzae (1 min at 37 C); 19 in the assay on H. parainfluenzae (5 min at 37 C). The “Viable Counts Following Lysis Buffer Treatment” value in the assay with C. hominis (1 min at 37 C) was determined as 74; in the assay with C. hominis (5 min at 37 C), 28; with S. pneumoniae WM43 (1 min at 37 C), 18; with S. pneumoniae WM43 (5 min at 37 C) it was 7; in the assay with H. influenzae (1 min at 37 C) it was 0; with H. influenzae (5 min at 37 C), 0. Also, the “Viable Counts Following Lysis Buffer Treatment” value in the assay with N. meningitidis (1 min at 37 C) and with N. meningitidis (5 min at 37 C) was 0 each time. Moreover, the “viability (in words)” value in assay [2] is given as “remained unaffected”. Further, the “Viability of Pellet” value in assay [3] was 4+. Further, the “Gram Stain of Pellet: Bacteria (cocci)” value in [3] is listed as 3+ Gram positive.

In the case of Genapol ® X-080 [Detergent 5], the “effect on Gram reaction/reactivity of the S. pneumoniae isolate (in words)” value in assay [3] was “relatively minor effect”.

Consider `CCCCCCCCO[C@@H]1O[C@H](CO)[C@@H](O)[C@H](O)[C@H]1O` [Detergent 1, n-octyl glucoside, reference compound], for which the “Gram Stain of Pellet: Bacteria (cocci)” value in [3] is given as “No organisms seen”.

Consider `CCCCCCCCCCCCOCCOCCOCCOCCOCCOCCOCCOCCOCCO` [Detergent 6, nonaethylene glycol monododecyl ether, reference compound], for which the “viability of the recovered S. pneumoniae cells (in words)” value in [4] is recorded as “not as high”. In [3], the “Viability of Pellet” value is given as 4+ and the “effect on Gram reaction/reactivity of the S. pneumoniae isolate (in words)” value was “relatively minor effect”.

For the compound Genapol ® X-100 [Detergent 8], in [3], the “Viability of Pellet” value is 4+ and the “Gram Stain of Pellet: Bacteria (cocci)” value was 3+ Gram positive.

Genapol ® C-100 [Detergent 7]: the “Viable Counts Following Lysis Buffer Treatment” value in the assay with S. pneumoniae WM48 (1 min at 37 C) is 17; in the assay with S. pneumoniae WM48 (5 min at 37 C), 12; in the assay with A. actinomycetecomitans (1 min at 37 C), 0; in the assay on A. actinomycetecomitans (5 min at 37 C), 0; in the assay on H. parainfluenzae (1 min at 37 C), 0; with H. parainfluenzae (5 min at 37 C) it was 0. Moreover, the “Viable Counts Following Lysis Buffer Treatment” value amounted to 0 with C. hominis (1 min at 37 C); 0 in the assay with C. hominis (5 min at 37 C); 30 in the assay on S. pneumoniae WM43 (1 min at 37 C); 19 in the assay with S. pneumoniae WM43 (5 min at 37 C); 0 in the assay with H. influenzae (1 min at 37 C); 0 in the assay on H. influenzae (5 min at 37 C). For the same compound, the “Viable Counts Following Lysis Buffer Treatment” value in the assay on N. meningitidis (1 min at 37 C) and in the assay on N. meningitidis (5 min at 37 C) was 0 in each case. For the same compound, the “toxicity (in words)” value in the assay on H. parainfluenzae (compared with Brij® 97) and in the assay on C. hominis (compared with Brij® 97) was “slightly more toxic” throughout. In addition, in assay [2], the “viability (in words)” value is on record as “remained unaffected”. Further, the “Gram Stain of Pellet: Bacteria (cocci)” value in assay [3] is on record as 3+ Gram positive.

Regarding `C[C@H](CCC(=O)NCCC[N+](C)(C)CCCS(=O)(=O)[O-])[C@H]1CC[C@H]2[C@@H]3[C@H](O)C[C@@H]4C[C@H](O)CC[C@]4(C)[C@H]3C[C@H](O)[C@]12C` [Detergent 2, CHAPS, reference compound], the “Gram Stain of Pellet: Bacteria (cocci)” value in assay [3] is “Rare Gram negative”.

With Triton ® X100-R [Detergent 3], in [4], the “viability of the recovered S. pneumoniae cells (in words)” value is “not as high”. For the same compound, the “Gram Stain of Pellet: Bacteria (cocci)” value in assay [3] is on record as 2+ Gram negative.

As for Brij ® 98 [Detergent 12], in assay [3], the “Gram Stain of Pellet: Bacteria (cocci)” value is 3+ Gram positive.

Consider Arlasolve 200 [Detergent 11], for which the “Gram Stain of Pellet: Bacteria (cocci)” value in assay [3] is 3+ Gram positive.

Regarding Brij ® 96V [Detergent 9], the “Gram Stain of Pellet: Bacteria (cocci)” value in assay [3] is on record as 3+ Gram positive.
